Laboratory results from patent US5340818A, “Methods and compositions for inhibiting tumor cell growth” (priority 1993, dated 1994).
“And” between values parts separate entries of the source, which are not always exact repeats. Equal entries are not always repeated. Where two headings read alike, the source gives them in different places.

Legend:
Format in all cases: cell-based, human
[1] = test system: DNA synthesis in HL-60 cells; test: Inhibition of [3H-methyl]dThd incorporation into DNA of HL-60 cells; conditions: for inhibition at 30 µg/mL: Homo sapiens, HL-60, at 0.03 mg/mL, read-out: % Inhibition of Precursor Incorporation, DNA; for inhibition of DNA synthesis, in words: HL-60, 0.03 mg/ml; for % Inhibition of Precursor Incorporation, DNA: at 0.03 mg/mL
Method: (§1) For the precursor incorporation studies, each compound (in 0.3% dimethylsulfoxide) was preincubated with HL-60 cells (a human promyelocytic leukemic cell line) 2.2×10^6 /ml, for 15 min prior to the addition of the labeled precursor (obtained from ICN Radiochemicals, Irvine, Calif.) and then incubated for 30 min. The precursors used for incorporation into DNA, RNA and protein were [^3 H-methyl]dThd (1 μCi, 0.15 nmole/ml), [5-^3 H]Cyd (5 μCi, 0.23 nmol/ml), and [2,3,4,5-^3 H]L-Leu (0.5 μCi, 0.004 nmol/ml), respectively. Incorporation of radioactivity in the absence of a plant compound and in the presence of dimethylsulfoxide was used as a control.
Human promyelocytic cells (HL-60) were incubated with [^3 H-methyl]dTHDin the presence and absence of a plant alkaloid.

[2] = test system: RNA synthesis in HL-60 cells; test: Inhibition of [5-3H]Cyd incorporation into RNA of HL-60 cells; conditions: Homo sapiens, HL-60, 0.5 h
Method: as §1, with “control. The control values for incorporation into DNA, RNA and protein were 8,500, 5,600 and 1,700 cpm/10^6 cells, respectively. The incubation conditions and the procedures for isolating DNA, RNA and protein fractions have been previously described (Chou, T. -C., et al., Cancer Res., 43:3074-3079 (1983)) .” for “control.”
(§2) HL-60 cells were incubated with [5-^3 H]Cyd or [2,3,4,5-^3 H]L-Leu in the presence and absence of alkaloids (0.03 mg/ml) in order to find the effects of the alkaloid on the incorporation of labeled precursors into RNA or protein. […] Over 90% of RNA and protein biosynthesis were inhibited by compounds 11, 16, 17, 22, 28, 29and 30 (Table 1). […] In most cases, the amount required to inhibit precursor incorporation into DNA was less than that to inhibit precursor incorporation into RNA or protein (i.e. DNA synthesis is inhibited most potently).

[3] = test system: protein synthesis in HL-60 cells; test: Inhibition of [2,3,4,5-3H]L-Leu incorporation into protein of HL-60 cells; conditions: Homo sapiens
Method: as §1, with “control. The control values for incorporation into DNA, RNA and protein were 8,500, 5,600 and 1,700 cpm/10^6 cells, respectively. The incubation conditions and the procedures for isolating DNA, RNA and protein fractions have been previously described (Chou, T. -C., et al., Cancer Res., 43:3074-3079 (1983)) .” for “control.”
as §2

HL-60 cells = test: HL-60 cell growth inhibition, 72 h; conditions: HL-60, 72 h; for IC50: read-out: Cell Growth Inhibition, IC50
Method: For growth inhibition studies, HL-60 cells (1.5×10^5 /ml) were grown in RPMI 1640 media (GIBCO, Grand Island, N.Y.) at 37° C. in humidified 5% CO2 for 72 h. Viable cells were determined using trypan blue exclusion and counted in a hemocytometer. The fractional inhibition for each compound concentration (0.0025-0.05 mg/ml in 0.1% dimethylsulfoxide) was analyzed with the median-effect plot using a computer program (Chou, T. -C and P. Talalay, Adv. Enzyme Regul., 22:27-55 (1984); Chou, J. and T. -C. thou, Dose-Effect analysis with microcomputers: Quantitation of ED50, LD50, synergism, antagonism, low-dose risk, receptor ligand binding and enzyme kinetics. A computer software disk for Apple II series or IBM-PC and manual. Elsevier Science Publishers, Elsevier-BioSoft, Cambridge, United Kingdom (1986)). The median-effect concentration (IC50) was determined automatically for three to five dose-effect levels. Cell growth in the absence of plant compound and in the presence of dimethylsulfoxide was used as a control. Dimethylsulfoxide alone inhibited cell growth 3.9%±1.5% during the 72 h incubation period. Those data with negative values represent activations.

[4] = at 0.03 mg/mL, read-out: % Inhibition of Precursor Incorporation, RNA
[5] = HL-60, at 0.03 mg/mL, read-out: % Inhibition of Precursor Incorporation, Protein
[6] = read-out: % Inhibition of Precursor Incorporation, RNA, at 0.03 mg/mL
[7] = HL-60, read-out: % Inhibition of Precursor Incorporation, Protein, at 0.03 mg/mL

Row | Structure (SMILES) | inhibition at 30 µg/mL [1] [%] | inhibition at 30 µg/mL [2, 4] [%] | inhibition at 30 µg/mL [3, 5] [%] | IC50 (HL-60 cells; Homo sapiens) | inhibition of DNA synthesis, in words [1] | cell growth inhibition, in words (HL-60 cells) | inhibition at 30 µg/mL [2, 6] [%] | inhibition at 30 µg/mL [3, 7] [%] | % Inhibition of Precursor Incorporation, DNA [1] [%] | Cell Growth Inhibition, IC50 (HL-60 cells) [µg/mL] | IC50 (HL-60 cells) [µM]
1 | COc1cc(O)c2c(=O)c3ccc(OC)c(OC)c3n(C)c2c1 | 34.8 | 95 | 28.3 | > 40 µg/mL and > 127 µM |  |  |  |  |  |  | 
2 | O=c1c2ccccc2[nH]c2cc(O)cc(O)c12 [Compound 4, 1,3-Dihydroxy-acridone] | 76.7 | 50.6 | 62.8 | 20.6 µg/mL and 90.7 µM | no significant activity |  |  |  |  |  | 
3 | CC(=O)Oc1cc(OC(C)=O)c2c(=O)c3ccccc3[nH]c2c1 [Compound 5, 1,3-O,O-Diacetyl-acridone] | 39.7 | 24.9 | 26.9 | > 40 µg/mL and > 129 µM | no significant activity |  |  |  |  |  | 
4 | CC(=O)Oc1cc(OC(C)=O)c2c(=O)c3ccccc3n(C)c2c1 [Compound 6] | 23 | 2.7 | -12.8 | > 40 µg/mL and > 123 µM |  |  |  |  |  |  | 
5 | COc1cc(O)c2c(=O)c3ccccc3n(C)c2c1 [Compound 7, 1-Hydroxy-3-methoxy N-methyl acridone] | 48.4 | 39.5 | 25.2 | > 40 µg/mL and > 157 µM |  |  |  |  |  |  | 
6 | COc1cc(O)cc2c1c(=O)c1ccccc1n2C [Compound 8, 1-Methoxy-3-Hydroxy N-methyl acridone] | 53.3 | 51.2 | 25.7 | > 40 µg/mL and > 157 µM |  |  |  |  |  |  | 
7 | COc1cc(OC(C)=O)cc2c1c(=O)c1ccccc1n2C [Compound 9, 3-O-Acetyl-1-methoxy-R-methyl acridone] | 71.1 | 61.6 | 30 | 30.5 µg/mL and 103 µM |  |  |  |  |  |  | 
8 | COc1cc(OC)c2c(=O)c3ccccc3n(C)c2c1 [Compound 10, 1,3-Dimethoxy-N-methyl acridone] | > 90 | 65.8 | 64.4 | 9.2 µg/mL and 34.2 µM | excellent inhibitory effect |  |  |  |  |  | 
9 | CC(C)=CCc1c(O)cc(O)c2c(=O)c3ccccc3n(C)c12 [Compound 11, Glycocitrine-II] | 99.5 | 97.1 | 95.3 | 8.2 µg/mL and 26.5 µM | potent inhibitor |  |  |  |  |  | 
10 | COc1cc(O)c2c(=O)c3ccccc3n(C)c2c1CC=C(C)C [Compound 12, 3-O-methyl-glycocitrine-II] | 61.8 | 53.8 | 50.3 | > 40 µg/mL and > 124 µM | only moderate inhibitory activity |  |  |  |  |  | 
11 | COc1cc(O)c2c(=O)c3cccc(O)c3n(C)c2c1CC=C(C)C [Compound 13, Glycocitrine-I] | 97.5 | 43.9 | 41.1 | 1.4 µg/mL and 4.1 µM |  | significant activity against leukemic cells in vitro |  |  |  |  | 
12 | COc1cc(OC(C)=O)c2c(=O)c3cccc(OC(C)=O)c3n(C)c2c1CC=C(C)C [Compound 14, OO-Diacetyl-glycocitrine-I] | 94.7 | 63.8 | 89.8 | 5.6 µg/mL and 13.2 µM |  | significant activity against leukemic cells in vitro |  |  |  |  | 
13 | COc1c(O)cc(O)c2c(=O)c3cccc(O)c3n(C)c12 [Compound 15, Citrusinine-II] | 88.5 |  |  | 17 µg/mL and 59.2 µM |  |  | 91.7 | 54.3 |  |  | 
14 | COc1cc(O)c2c(=O)c3cccc(O)c3n(C)c2c1OC [Compound 16, Citrusinine-I] | 97 |  |  | 2.6 µg/mL and 8.6 µM |  | significant activity against leukemic cells in vitro | 96.5 | 87 |  |  | 
15 | COc1cc(OC)c2c(=O)c3cccc(OC)c3n(C)c2c1OC [Compound 18, 1,3,4,5-Tetra-methoxy-N-methyl acridone] | 91.5 | 57 | 71.8 | 13.3 µg/mL and 40.4 µM |  |  |  |  |  |  | 
16 | COc1ccc2c(=O)c3c(O)cc(O)cc3n(C)c2c1OC [Compound 19, Grandisine-II] | 76.5 | 96 | 27.3 | > 40 µg/mL and > 133 µM |  |  |  |  |  |  | 
17 | COc1ccc2c(=O)c3c(O)cc(OC(C)=O)cc3n(C)c2c1OC [Compound 20, O-Acetyl-grandisine-II] | 24.4 | 77 | -5.6 | 38.7 µg/mL and 113 µM |  |  |  |  |  |  | 
18 | COc1cc(O)c2c(=O)c3ccc(OC)c(O)c3n(C)c2c1 [Compound 21, Grandisine-I] | 71.7 | 69.5 | 22.8 | > 40 µg/mL and > 133 µM |  |  |  |  |  |  | 
19 | COc1cc(O)c2c(=O)c3ccc(O)c(OC)c3n(C)c2c1 [Compound 22, Citpressine-I] |  |  |  |  |  |  |  |  | 65.0 | > 40 | > 133
20 | COc1cc(OC)c2c(=O)c3ccc(OC)c(OC)c3n(C)c2c1 [Compound 24, 1-O-Methyl-citpressine-II] | 93.1 | 67.3 | 75.6 | 22 µg/mL and 66.8 µM |  |  |  |  | 93 |  | 
21 | COc1c(O)ccc2c(=O)c3c(O)c(CC=C(C)C)c(O)cc3n(C)c12 [Compound 25, Buntanine] | 96.6 | 29.8 | 40.1 | 3.6 µg/mL and 10.1 µM |  |  |  |  |  |  | 
22 | CC(C)=CCc1c(O)c(CC=C(C)C)c2c(c1O)c(=O)c1cccc(O)c1n2C [Compound 26, N-methyl-atalaphylline] | 99.6 |  |  | 5.4 µg/mL and 13.7 µM |  | significant activity against leukemic cells in vitro | 28.2 | 44.3 |  |  | 
23 | COc1c(O)ccc2c(=O)c3c(O)cc(O)c(CC=C(C)C)c3n(C)c12 [Compound 27, Prenylcitpressine] | 52.4 | 21.1 | -15.7 | 36 µg/mL and 94.5 µM |  |  |  |  |  |  | 
24 | COc1c(OC(C)=O)ccc2c(=O)c3c(O)cc(OC(C)=O)c(CC=C(C)C)c3n(C)c12 [Compound 28, 3,6-O,O-Diacetyl-prenylcitpressine] | 96.8 | 96.1 | 89.6 | 2.2 µg/mL and 5 µM |  | significant activity against leukemic cells in vitro |  |  |  |  | 
